Data taken from PMC11497106, “GJB2 Promotes HCC Progression by Activating Glycolysis Through Cytoplasmic Translocation and Generating a Suppressive Tumor Microenvironment Based on Single Cell RNA Sequencing” (Advanced Science, 2024).

Target: T1, GJB2 (Gap junction protein beta-2; Connexin 26, Cx26); GFP-GJB2 (Homo sapiens, UniProt P29033)
T1 construct: 7QEQ is printed as human GJB2 for docking only
Experiment: microscale thermophoresis (Monolith NT.[…]), GFP-GJB2 in HEK293T lysate
Type: binding

Kd: 8.52 µM
SMILES: O=C(/C=C/c1ccc(O)c2c1[C@H](C(=O)O[C@H](Cc1ccc(O)c(O)c1)C(=O)O)[C@@H](c1ccc(O)c(O)c1)O2)O[C@H](Cc1ccc(O)c(O)c1)C(=O)O [Salvianolic acid B]
